ChEMBL document CHEMBL2062364, “Discovery and optimization of new benzimidazole- and benzoxazole-pyrimidone selective PI3Kβ inhibitors for the treatment of phosphatase and TENsin homologue (PTEN)-deficient cancers” (J Med Chem, 2012)

Columns and labels:
[1] = Clearance in CB17/ICR-Prkdc SCID mouse at 6 mg/kg, iv; assay type: ADME, organism-based; set-up: dose 6 mg/kg, route intravenous; conditions: in vivo
[2] = target: Phosphatidylinositol 4,5-bisphosphate 3-kinase catalytic subunit alpha isoform (Homo sapiens, UniProt P42336); test: Inhibition of human PI3Kalpha-mediated Akt phosphorylation at Ser473 residue expressed in human H460 cells after 0.5 to 2 hrs by Western blot analysis; assay type: cell-based
Phosphatidylinositol 4,5-bisphosphate 3-kinase catalytic subunit alpha isoform, sequence (P42336 whole entry, canonical isoform): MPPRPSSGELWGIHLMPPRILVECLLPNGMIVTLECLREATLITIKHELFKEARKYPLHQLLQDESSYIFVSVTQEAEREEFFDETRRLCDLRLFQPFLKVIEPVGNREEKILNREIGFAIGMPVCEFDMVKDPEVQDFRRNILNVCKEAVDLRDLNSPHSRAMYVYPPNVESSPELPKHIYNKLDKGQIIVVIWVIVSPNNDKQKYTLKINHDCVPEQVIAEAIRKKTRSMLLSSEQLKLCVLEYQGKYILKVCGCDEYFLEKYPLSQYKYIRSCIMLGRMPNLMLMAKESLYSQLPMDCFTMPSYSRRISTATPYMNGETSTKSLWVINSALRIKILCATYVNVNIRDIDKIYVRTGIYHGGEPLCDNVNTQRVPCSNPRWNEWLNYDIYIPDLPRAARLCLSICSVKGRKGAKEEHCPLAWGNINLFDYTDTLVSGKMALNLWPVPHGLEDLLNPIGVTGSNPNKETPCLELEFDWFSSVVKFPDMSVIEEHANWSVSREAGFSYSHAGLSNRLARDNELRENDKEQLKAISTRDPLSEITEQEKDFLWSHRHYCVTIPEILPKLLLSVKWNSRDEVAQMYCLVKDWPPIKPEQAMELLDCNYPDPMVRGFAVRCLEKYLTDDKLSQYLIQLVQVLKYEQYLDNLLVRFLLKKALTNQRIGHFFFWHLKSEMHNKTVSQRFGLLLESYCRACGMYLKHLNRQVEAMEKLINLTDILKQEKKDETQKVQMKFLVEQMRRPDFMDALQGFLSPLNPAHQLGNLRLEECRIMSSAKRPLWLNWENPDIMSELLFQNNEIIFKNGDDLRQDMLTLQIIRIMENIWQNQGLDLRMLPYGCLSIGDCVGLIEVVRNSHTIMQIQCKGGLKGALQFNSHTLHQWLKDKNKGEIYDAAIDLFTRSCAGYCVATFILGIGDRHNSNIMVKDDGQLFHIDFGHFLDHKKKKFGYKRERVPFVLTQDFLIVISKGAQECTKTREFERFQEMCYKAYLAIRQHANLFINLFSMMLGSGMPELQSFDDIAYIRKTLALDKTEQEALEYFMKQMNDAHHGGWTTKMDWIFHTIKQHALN

[3] = AUC (0 to Tlast) in CB17/ICR-Prkdc SCID mouse at 6 mg/kg, iv; assay type: ADME, organism-based; set-up: dose 6 mg/kg, route intravenous; conditions: plasma
Plasma = test: Plasma concentration in SCID mouse xenografted with PTEN-deficient human PC3 cells at 300 mg/kg, po BID measured after day 1; assay type: ADME, organism-based, PC-3; set-up: dose 300 mg/kg, route oral; conditions: in vivo
[4] = Drug metabolism in human liver microsomes; assay type: ADME, Microsome; conditions: read-out: Drug metabolism
Mus musculus [5] = test: Toxicity in SCID mouse bearing PTEN-deficient human PC3 cells at 300 mg/kg, po BID for 9 days; assay type: organism-based, PC-3; set-up: dose 300 mg/kg, route oral; conditions: in vivo, 216 h
Nucleic Acid = test: Ratio of drug uptake in plasma to tumor of SCID mouse xenografted with PTEN-deficient human PC3 cells at 300 mg/kg, po BID measured after 0.5 to 24 hrs; assay type: ADME, organism-based, PC-3; set-up: dose 300 mg/kg, route oral; conditions: in vivo
[6] = target: T1, Phosphatidylinositol 4,5-bisphosphate 3-kinase catalytic subunit beta isoform (Homo sapiens, UniProt P42338); test: Inhibition of N-terminus poly-His tagged human PI3Kbeta expressed in baculovirus infected insect […] cells coexpressing p85alpha using PI(4,5)P2 as substrate preincubated with compound for 15 mins measured after 10 mins by HTRF assay
T1 sequence (P42338 whole entry, canonical isoform): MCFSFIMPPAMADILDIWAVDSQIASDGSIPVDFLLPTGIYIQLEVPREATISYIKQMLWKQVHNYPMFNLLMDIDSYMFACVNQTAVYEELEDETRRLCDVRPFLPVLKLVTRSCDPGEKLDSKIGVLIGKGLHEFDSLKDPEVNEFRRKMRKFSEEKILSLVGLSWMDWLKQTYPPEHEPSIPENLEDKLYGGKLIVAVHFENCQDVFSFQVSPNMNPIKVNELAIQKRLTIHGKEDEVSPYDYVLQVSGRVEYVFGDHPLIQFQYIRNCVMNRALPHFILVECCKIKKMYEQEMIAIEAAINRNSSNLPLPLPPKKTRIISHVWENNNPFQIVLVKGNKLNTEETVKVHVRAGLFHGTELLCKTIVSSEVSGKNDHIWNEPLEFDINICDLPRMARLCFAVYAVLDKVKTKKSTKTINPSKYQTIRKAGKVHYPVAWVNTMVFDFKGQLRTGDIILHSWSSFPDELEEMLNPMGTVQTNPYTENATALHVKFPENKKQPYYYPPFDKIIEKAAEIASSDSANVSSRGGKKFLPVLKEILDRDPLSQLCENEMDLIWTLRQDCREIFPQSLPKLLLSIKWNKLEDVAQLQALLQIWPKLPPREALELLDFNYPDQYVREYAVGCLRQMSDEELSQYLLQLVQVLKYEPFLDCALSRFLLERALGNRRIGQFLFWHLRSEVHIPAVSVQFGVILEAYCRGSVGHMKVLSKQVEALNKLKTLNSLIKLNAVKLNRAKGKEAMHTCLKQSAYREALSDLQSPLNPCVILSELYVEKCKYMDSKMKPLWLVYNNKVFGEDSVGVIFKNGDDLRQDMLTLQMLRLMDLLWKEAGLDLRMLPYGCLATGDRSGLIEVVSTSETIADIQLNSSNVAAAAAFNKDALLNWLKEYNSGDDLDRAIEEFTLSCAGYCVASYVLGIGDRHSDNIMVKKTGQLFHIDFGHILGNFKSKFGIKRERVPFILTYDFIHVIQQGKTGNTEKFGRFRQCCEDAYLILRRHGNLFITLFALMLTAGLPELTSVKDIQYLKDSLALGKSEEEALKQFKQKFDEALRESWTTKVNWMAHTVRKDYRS

[7] = target: T1, Phosphatidylinositol 4,5-bisphosphate 3-kinase catalytic subunit beta isoform; test: Inhibition of human PI3Kbeta-mediated Akt phosphorylation at T308 residue expressed in PTEN-deficient human PC3 cells after 2 hrs by Western blot analysis; assay type: cell-based, PC-3
[8] = target: T1, Phosphatidylinositol 4,5-bisphosphate 3-kinase catalytic subunit beta isoform; test: Inhibition of human PI3Kbeta-mediated Akt phosphorylation at Ser473 residue expressed in PTEN-deficient human PC3 cells by chemiluminescence assay; assay type: cell-based, PC-3
[9] = Plasma concentration in SCID mouse xenografted with PTEN-deficient human PC3 cells at 300 mg/kg, po BID measured after 6 hrs; assay type: ADME, organism-based, PC-3; set-up: dose 300 mg/kg, route oral
[10] = target: Phosphatidylinositol 4,5-bisphosphate 3-kinase catalytic subunit gamma isoform (Homo sapiens, UniProt P48736); test: Inhibition of N-terminus poly-His tagged human PI3Kgamma expressed in baculovirus infected insect sf9 cells using PI(4,5)P2 as substrate preincubated with compound for 15 mins measured after 10 mins by HTRF assay
Phosphatidylinositol 4,5-bisphosphate 3-kinase catalytic subunit gamma isoform, sequence (P48736 whole entry, canonical isoform): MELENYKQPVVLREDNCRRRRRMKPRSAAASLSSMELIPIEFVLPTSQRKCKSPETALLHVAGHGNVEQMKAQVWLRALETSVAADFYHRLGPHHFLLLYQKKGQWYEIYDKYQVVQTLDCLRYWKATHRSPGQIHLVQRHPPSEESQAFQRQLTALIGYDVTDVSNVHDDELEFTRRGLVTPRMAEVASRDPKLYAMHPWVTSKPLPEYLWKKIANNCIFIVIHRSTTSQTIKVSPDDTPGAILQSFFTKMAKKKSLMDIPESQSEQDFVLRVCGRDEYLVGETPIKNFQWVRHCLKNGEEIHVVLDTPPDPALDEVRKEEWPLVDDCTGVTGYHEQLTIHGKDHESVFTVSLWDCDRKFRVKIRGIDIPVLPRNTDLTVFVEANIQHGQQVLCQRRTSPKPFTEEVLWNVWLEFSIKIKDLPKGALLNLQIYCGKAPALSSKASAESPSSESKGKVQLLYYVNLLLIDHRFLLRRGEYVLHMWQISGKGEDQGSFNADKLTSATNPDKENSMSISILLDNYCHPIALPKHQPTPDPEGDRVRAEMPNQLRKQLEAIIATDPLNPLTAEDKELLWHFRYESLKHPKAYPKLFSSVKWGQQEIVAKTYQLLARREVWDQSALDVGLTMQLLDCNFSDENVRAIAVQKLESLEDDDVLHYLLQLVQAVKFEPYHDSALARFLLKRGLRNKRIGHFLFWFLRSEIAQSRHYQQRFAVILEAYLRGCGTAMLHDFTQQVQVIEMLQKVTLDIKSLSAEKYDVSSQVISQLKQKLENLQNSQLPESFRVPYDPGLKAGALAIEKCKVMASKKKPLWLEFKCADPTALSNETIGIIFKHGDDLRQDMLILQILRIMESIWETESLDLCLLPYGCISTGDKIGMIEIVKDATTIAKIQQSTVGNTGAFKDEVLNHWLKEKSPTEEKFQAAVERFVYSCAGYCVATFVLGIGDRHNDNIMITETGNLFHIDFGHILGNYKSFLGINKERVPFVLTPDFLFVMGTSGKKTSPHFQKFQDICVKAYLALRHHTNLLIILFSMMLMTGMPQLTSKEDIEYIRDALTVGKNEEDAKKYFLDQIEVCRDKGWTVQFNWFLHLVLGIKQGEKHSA

[11] = AUC (0 to Tlast) in CB17/ICR-Prkdc SCID mouse at 10 mg/kg, po; assay type: ADME, organism-based; set-up: dose 10 mg/kg, route oral; conditions: plasma
Mus musculus [12] = test: Tlast in CB17/ICR-Prkdc SCID mouse at 10 mg/kg, po; assay type: ADME, organism-based; set-up: dose 10 mg/kg, route oral; conditions: in vivo
[13] = target: T1, Phosphatidylinositol 4,5-bisphosphate 3-kinase catalytic subunit beta isoform; test: Inhibition of human PI3Kbeta-mediated Akt phosphorylation at Ser473 residue expressed in mouse MEF-3T3 cells after 0.5 to 2 hrs by Western blot analysis; assay type: cell-based
[14] = Inhibition of mTORC2-mediated Akt phosphorylation at Ser473 residue in PTEN-deficient human PC3 cells after 2 hrs by Western blot analysis; assay type: cell-based; conditions: PC-3, 2 h
[15] = Plasma concentration in SCID mouse xenografted with PTEN-deficient human PC3 cells at 300 mg/kg, po BID measured after 0.5 hrs; assay type: ADME, organism-based, PC-3; set-up: dose 300 mg/kg, route oral
[16] = Drug metabolism in mouse liver microsomes; assay type: ADME, Microsome; conditions: read-out: Drug metabolism
[17] = Apparent permeability of the compound across human Caco2 cells; assay type: ADME, cell-based; conditions: Caco-2
Mus musculus [18] = test: Inhibition of Akt phosphorylation at T308 residue in tumor of po dosed SCID mouse bearing human PTEN-deficient PC3 cells administered BID; assay type: functional, organism-based; conditions: PC-3
[19] = target: Serine/threonine-protein kinase mTOR (Homo sapiens, UniProt P42345); test: Inhibition of mTOR
[20] = Terminal half life in CB17/ICR-Prkdc SCID mouse at 6 mg/kg, iv; assay type: ADME, organism-based; set-up: dose 6 mg/kg, route intravenous; conditions: in vivo, read-out: beta t1/2 (converted)

clearance [1]: 51.7 mL/min/kg
IC50 [2]: > 10 µM
AUC(0-t) [3]: 1950 ng·h/mL
Drug uptake (Plasma): Active
metabolised [4]: 27%
Ratio (Nucleic Acid): 1
IC50 [6]: 99 nM
IC50 [7]: 188 nM
IC50 [8]: 76 nM
concentration at 6 h [9]: 11 µM
IC50 [10]: > 10 µM
AUC(0-t) [11]: 846 ng·h/mL
Tlast (Mus musculus [12]): 24 h
IC50 [13]: 86 nM
IC50 [14]: 76 nM
concentration at 0.5 h [15]: 28 µM
metabolised [16]: 13%
Papp [17]: 3 ×10⁻⁶ cm/s
EC50 (Mus musculus [18]): 2100 nM
IC50 [19]: > 10 µM
half-life [20]: 264 min
Compound: Cn1c(Cc2nc(N3CCOCC3)cc(=O)[nH]2)nc2ccccc21
Activity (Mus musculus [5]): Non-toxic
